This is an account of results in ChEMBL document CHEMBL4828775, “Antimicrobial and Cytotoxic Angucyclic Quinones from Actinomadura miaoliensis” (J Nat Prod, 2021).

Converted amounts (≈) assume the structure as drawn.

The test system of one assay is Acinetobacter baumannii. The assay is described as follows: Antibacterial activity against Acinetobacter baumannii assessed as inhibition of bacterial growth by CLSI based microdilution method. It is filed as functional. (In broth dilution the organism is exposed to a series of concentrations in liquid medium.)
The next assay deals with Plasmodium falciparum. The experiment in a line: Antimalarial activity against Plasmodium falciparum K1 assessed as inhibition of parasite growth by microculture radioisotope technique. It counts as functional, organism-based.
The test system of the next assay is Curvularia lunata. The experiment in a line: Antifungal activity against Curvularia lunata assessed as inhibition of fungal growth by CLSI based microdilution method. It counts as functional.
The test system of another assay is NCI-H187. The experiment in a line: Cytotoxicity against human NCI-H187 cells assessed as reduction in cell viability by resazurin microplate assay. It is filed as functional, cell-based. (Resazurin is reduced to fluorescent resorufin, in cell work by metabolically active cells.)
The next assay relates to Alternaria brassicicola. The experiment in a line: Antifungal activity against Alternaria brassicicola assessed as inhibition of fungal growth by CLSI based microdilution method. It counts as functional.
A further assay relates to MCF7. The assay is described as follows: Cytotoxicity against human MCF7 cells assessed as reduction in cell viability by resazurin microplate assay. It counts as functional, cell-based.
Assay [1] relates to Mycobacterium tuberculosis. The assay is described as follows: Antitubercular activity against Mycobacterium tuberculosis H37Ra assessed as inhibition of bacterial growth by green fluorescent protein based method. It is filed as functional.
In a further assay the test system is Staphylococcus aureus. The assay is described as follows: Antibacterial activity against Staphylococcus aureus assessed as inhibition of bacterial growth by CLSI based microdilution method. It is filed as functional.
The subject of another assay is Vero. The experiment in a line: Cytotoxicity against African green monkey Vero cells assessed as reduction in cell viability by resazurin microplate assay. It is filed as cell-based. The note with it: Chlorocebus sabaeus.

Usually MIC stands for the lowest concentration that inhibits growth of the organism. On to `CC[C@H]1OC(=O)[C@H](C)[C@@H](O[C@H]2C[C@@](C)(OC)[C@@H](O)[C@H](C)O2)[C@H](C)[C@@H](O[C@@H]2O[C@H](C)C[C@H](N(C)C)[C@H]2O)[C@](C)(O)C[C@@H](C)C(=O)[C@H](C)[C@@H](O)[C@]1(C)O` [ERYTHROMYCIN], for which the MIC in the assay with Acinetobacter baumannii was determined as 8.5 µM (≈ 6.24 µg/mL).

A word on the IC50: it is the concentration needed to halve the response being measured. `CC1=C[C@@H](O)[C@H]2[C@](O)(CC[C@]3(O)C(=O)c4c(O)cccc4[C@H](O)[C@@]23O)C1`: the IC50 in the assay with Plasmodium falciparum was over 28 µM; in the assay on NCI-H187 it was over 138 µM; in the assay on MCF7, over 138 µM; in the assay with Vero, over 138 µM. The MIC in the assay with Curvularia lunata was over 138 µM; in the assay on Alternaria brassicicola, over 138 µM; in the assay with Acinetobacter baumannii it was over 138 µM; in [1] it was 138 µM (≈ 50 µg/mL); in the assay on Staphylococcus aureus, over 138 µM.

In the case of `NNC(=O)c1ccncc1` [ISONIAZID], in [1], the MIC was 0.5 µM (≈ 0.0686 µg/mL).

Consider `Cc1cc(O)c2c(c1)CCC1=C2C(=O)c2cccc(O)c2C1=O`, for which the IC50 in the assay with Plasmodium falciparum was determined as 2.6 µM; with NCI-H187 it was 3 µM; in the assay with MCF7, 1.1 µM; in the assay on Vero it was 1.4 µM. The MIC was over 150 µM in the assay on Curvularia lunata; over 150 µM in the assay with Alternaria brassicicola; over 150 µM in the assay on Acinetobacter baumannii; 0.3 µM (≈ 0.0919 µg/mL) in assay [1]; over 150 µM in the assay with Staphylococcus aureus.

Consider `CC1=C[C@@H](O)[C@@H]2C3=C(CC[C@]2(O)C1)C(=O)c1c(O)cccc1C3=O`, for which the IC50 in the assay on Plasmodium falciparum worked out at 2.5 µM; with NCI-H187, 2.3 µM; in the assay on MCF7 it was 3.4 µM; in the assay with Vero, 1.1 µM. Also, the MIC with Curvularia lunata is over 150 µM; in the assay with Alternaria brassicicola, over 150 µM; in the assay on Acinetobacter baumannii it was over 150 µM; in assay [1], 2.4 µM (≈ 0.783 µg/mL); with Staphylococcus aureus, over 150 µM.

Take `Cc1c2ccncc2c(C)c2c1[nH]c1ccccc12` [ELLIPTECINE]: the half-maximal inhibitory concentration (IC50) with NCI-H187 stood at 13.7 µM; with Vero, 4.5 µM.

As to `CN[C@H](CC(C)C)C(=O)N[C@H]1C(=O)N[C@@H](CC(N)=O)C(=O)N[C@H]2C(=O)N[C@H]3C(=O)N[C@H](C(=O)N[C@H](C(=O)O)c4cc(O)cc(O)c4-c4cc3ccc4O)[C@H](O)c3ccc(c(Cl)c3)Oc3cc2cc(c3O[C@@H]2O[C@H](CO)[C@@H](O)[C@H](O)[C@H]2O[C@H]2C[C@](C)(N)[C@H](O)[C@H](C)O2)Oc2ccc(cc2Cl)[C@H]1O` [VANCOMYCIN], the MIC with Staphylococcus aureus worked out at 0.3 µM (≈ 0.435 µg/mL).

For the compound `Cc1cc(O)c2c3c(ccc2c1)C(=O)c1c(O)cccc1C3=O` [TETRANGULOL], the half-maximal inhibitory concentration (IC50) was 5.9 µM with Plasmodium falciparum, 17.1 µM in the assay on NCI-H187, 18 µM with MCF7 and 4.4 µM in the assay with Vero. For the same compound, the MIC is over 150 µM in the assay on Curvularia lunata; over 150 µM in the assay on Alternaria brassicicola; over 150 µM in the assay with Acinetobacter baumannii; 2.6 µM (≈ 0.791 µg/mL) in assay [1]; over 150 µM with Staphylococcus aureus.

With `CO[C@H]1/C=C/O[C@@]2(C)Oc3c(C)c(O)c4c(O)c(c(/C=N/N5CCN(C)CC5)c(O)c4c3C2=O)NC(=O)/C(C)=C\C=C\[C@H](C)[C@H](O)[C@@H](C)[C@@H](O)[C@@H](C)[C@H](OC(C)=O)[C@@H]1C` [RIFAMPIN], the figures for the MIC (with Acinetobacter baumannii; in assay [1]; with Staphylococcus aureus) were 3.8 µM (≈ 3.13 µg/mL), 0.006 µM (≈ 0.00494 µg/mL) and 1.9 µM (≈ 1.56 µg/mL), respectively.

Regarding `C[C@H]1[C@@H](O)O[C@@H]2O[C@@]3(C)CC[C@H]4[C@H](C)CC[C@@H]1[C@@]24OO3` [ARTENIMOL], the concentration for half-maximal inhibition (IC50) in the assay with Plasmodium falciparum turned out to be 0.002 µM.

Turning to `Cc1ccc2c3c(ccc2c1)C(=O)c1c(O)cccc1C3=O`, the IC50 is over 35 µM with Plasmodium falciparum, 83.3 µM in the assay with NCI-H187, 55.3 µM in the assay with MCF7 and 35.4 µM in the assay on Vero. Moreover, the MIC in the assay with Curvularia lunata is over 150 µM; in the assay with Alternaria brassicicola, over 150 µM; in the assay on Acinetobacter baumannii, over 150 µM; in assay [1], 10.9 µM (≈ 3.14 µg/mL); with Staphylococcus aureus it was over 150 µM.

As for `CC1=CC(=O)[C@@H]2[C@H]3[C@H](CC[C@]2(O)C1)C(=O)c1c(O)cccc1[C@@H]3O`, the IC50 was 28.3 µM in the assay on Plasmodium falciparum, over 150 µM in the assay with NCI-H187, over 150 µM with MCF7 and 147 µM in the assay with Vero. Moreover, the MIC in the assay with Curvularia lunata is over 150 µM; in the assay on Alternaria brassicicola, over 150 µM; with Acinetobacter baumannii it was over 150 µM; in assay [1], 9.5 µM (≈ 3.12 µg/mL); in the assay with Staphylococcus aureus, over 150 µM.

As to `C[C@@H]1[C@H](O)[C@@H](C)/C=C/C=C/C=C/C=C/C=C/C=C/C=C/[C@H](O[C@@H]2O[C@H](C)[C@@H](O)[C@H](N)[C@@H]2O)C[C@@H]2O[C@](O)(C[C@@H](O)C[C@@H](O)[C@H](O)CC[C@@H](O)C[C@@H](O)CC(=O)O[C@H]1C)C[C@H](O)[C@H]2C(=O)O` [AMPHOTERICIN B], the minimum inhibitory concentration (MIC) in the assay with Curvularia lunata is 1.7 µM (≈ 1.57 µg/mL); with Alternaria brassicicola, 0.8 µM (≈ 0.739 µg/mL).

For `CC1=C[C@@H]2O[C@]34CC[C@](O)(C1)[C@H]2[C@]3(O)[C@@H](O)c1cccc(O)c1C4=O`, the IC50 with Plasmodium falciparum is over 28 µM; in the assay with NCI-H187, over 145 µM; with MCF7 it was over 145 µM; in the assay with Vero it was over 145 µM. The MIC in the assay with Curvularia lunata is over 145 µM; with Alternaria brassicicola it was over 145 µM; with Acinetobacter baumannii it was over 145 µM; in [1], 145 µM (≈ 50 µg/mL); in the assay with Staphylococcus aureus, over 145 µM.

`CC1=CC(=O)[C@@H]2C3=C(CC[C@]2(O)C1)C(=O)c1c(O)cccc1C3=O`: the concentration for half-maximal inhibition (IC50) in the assay with Plasmodium falciparum was determined as 2.2 µM; in the assay on NCI-H187 it was 2.2 µM; in the assay on MCF7, 2.2 µM; in the assay on Vero, 1.8 µM. Further, the MIC in the assay on Curvularia lunata is over 150 µM; in the assay with Alternaria brassicicola it was over 150 µM; in the assay on Acinetobacter baumannii, over 150 µM; in assay [1], 0.6 µM (≈ 0.195 µg/mL); with Staphylococcus aureus, over 150 µM.
